Our source for the IC50 values is patent publication US11236086B2, “Substituted pyrrolopyridines as inhibitors of activin receptor-like kinase” (BLUEPRINT MEDICINES CORPORATION, priority 2017, dated 2022).

pIC50: −log10 of the molar value.

The target of assay [1] is T1, ALK2R206H (mutant ALK2, N-terminally tagged with GST) (Homo sapiens, UniProt Q04771, R206H).
T1 construct: purchased Carna Bioscience or ThermoFisher 09-148 or PV6232
T1 sequence (Q04771 21-509 R206H): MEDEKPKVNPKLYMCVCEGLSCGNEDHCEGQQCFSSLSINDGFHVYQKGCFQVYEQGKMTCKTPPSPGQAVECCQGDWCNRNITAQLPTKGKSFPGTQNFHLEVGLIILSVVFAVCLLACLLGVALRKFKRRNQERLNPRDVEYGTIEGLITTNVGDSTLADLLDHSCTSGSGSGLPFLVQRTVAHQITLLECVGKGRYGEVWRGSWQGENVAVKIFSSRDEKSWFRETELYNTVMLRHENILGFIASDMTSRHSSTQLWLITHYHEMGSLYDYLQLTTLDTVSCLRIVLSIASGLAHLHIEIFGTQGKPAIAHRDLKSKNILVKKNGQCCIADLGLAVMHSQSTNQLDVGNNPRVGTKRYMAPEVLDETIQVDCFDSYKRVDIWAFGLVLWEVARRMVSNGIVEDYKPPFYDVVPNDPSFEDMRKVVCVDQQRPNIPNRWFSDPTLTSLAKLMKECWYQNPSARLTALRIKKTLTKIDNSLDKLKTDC
Put plainly: ALK binding assay (LANTHASCREEN TR-FRET competitive binding, displacement of Kinase Tracer 178). The following applies: read-out: Binding Assay (IC50 class). The method in brief:
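GST-tagged ALK2 R206H (2-5 nM) mixed with Eu-anti-GST antibody (4-10 nM), Kinase Tracer 178 (50 nM, near its Kd) and compound titration (1% DMSO) in Kinase Buffer A, 30 min at room temperature. Tracer displacement read as TR-FRET ratio, normalized to controls; IC50 from 4-parameter fit.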
(TR-FRET usually uses a lanthanide donor and a delayed reading to cut background.)

The next assay concerns the target T2, human ALK2 R206H (Homo sapiens, UniProt Q04771, R206H).
T2 construct: expressed in transfected cells; host or cells: HEK293 (ATCC CRL1573), lentivirus transduction, blasticidin selection
T2 sequence (Q04771 21-509 R206H): T1 sequence (Q04771 21-509 R206H)
The assay is described as follows: Cell-based ALK2-R206H cell activity assay (Smad1-Ser463/Ser465 phosphorylation by AlphaLISA in HEK293-ALK2-R206H cells). Conditions: phospho-Smad1 AlphaLISA, read-out: Cell Line (Cell Assay, IC50 class). In short, it runs like this:
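HEK293 stable line expressing human ALK2 R206H with C-terminal FLAG, plated overnight in serum-free medium. Cells were treated 2-3 h with compound over 10 3-fold doses, top 10 μM or 1 μM, in duplicate. Phospho-Smad1 Ser463/465 in lysate was read by AlphaLISA; IC50 was normalised to DMSO (0%) and 1 μM LDN193189 (100%).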
A general note: Alpha assays give light when donor and acceptor beads are brought close together.

Consider `Cn1cc(-c2cc3c(N4CCN(C(=O)CC5CC5)CC4)ccnc3[nH]2)cn1` [Compound 21], for which the pIC50 (in general, the negative decadic logarithm of the IC50, by convention in mol/L) in assay [1] was at least 8.00; at human ALK2 R206H, 6.30 to 7.00.
For `O=C(OC1COC1)N1CCN(c2ccnc3[nH]c(-c4csc(C(F)(F)F)n4)cc23)CC1` [Compound 408], the pIC50 is at least 8.00 in assay [1] and 6.30 to 7.00 on human ALK2 R206H.
With `CCOC(=O)N1CCN(c2ccnc3[nH]c(-c4ccccn4)cc23)CC1` [Compound 7], the pIC50 in assay [1] is at least 8.00; on human ALK2 R206H it was at least 7.00.
For `O=C(OC1COC1)N1CCN(c2ccnc3[nH]c(-c4ccc(C5(O)CCOCC5)cn4)cc23)CC1` [Compound 446], in that order: at least 8.00 and at least 7.00.
For the molecule `CCNC(=O)c1nc(-c2cc3c(N4CCN(C(=O)OC5COC5)CC4)ccnc3[nH]2)cs1` [Compound 415], the figures for the negative-log IC50 (pIC50) (in assay [1]; at human ALK2 R206H) were at least 8.00 and 6.30 to 7.00, respectively.
Regarding `Cc1nc(-c2[nH]c3nccc(N4CCN(C(=O)OC5CCC5)CC4)c3c2C#N)cn1C` [Compound 284], the negative-log IC50 (pIC50) in assay [1] is at least 8.00; on human ALK2 R206H, at least 7.00.
For `Cc1nn(C(C)C)cc1-c1cc2c(N3CCN(C(=O)[C@H]4CC[C@H](C#N)CC4)CC3)ccnc2[nH]1` [Compound 422], the pIC50 was at least 8.00 in assay [1] and at least 7.00 on human ALK2 R206H.
For `Cc1c(-c2cnn(C)c2)[nH]c2nccc(N3CCN(C(=O)O[C@H]4C[C@H](F)C4)CC3)c12` [Compound 245], the figures for the pIC50 (in assay [1]; at human ALK2 R206H) were at least 8.00 and at least 7.00, respectively.
On to `CC(C)(C#N)n1cc(-c2cc3c(N4CCN(C(=O)OC5COC5)CC4)ccnc3[nH]2)cn1` [Compound 351], for which the pIC50 in assay [1] is at least 8.00; on human ALK2 R206H it was 6.30 to 7.00.
Regarding `N#Cc1ccc(-c2cc3c(N4CCN(C(=O)OC5COC5)CC4)ccnc3[nH]2)nc1` [Compound 192], the pIC50 in assay [1] was at least 8.00; at human ALK2 R206H, 6.30 to 7.00.
On the same counts, the results for `C[C@@H](CF)OC(=O)N1CCN(c2ccnc3[nH]c(-c4cnn(C)c4)cc23)CC1` [Compound 117] are at least 8.00 and at least 7.00.
For `Cc1cc(-c2cc3c(N4CCN(C(=O)OC5COC5)CC4)ccnc3[nH]2)sn1` [Compound 171], in that order: at least 8.00 and 6.30 to 7.00.
Regarding `CCOC(=O)N1CCN(c2ccnc3[nH]c(-c4ccc([C@]5(O)CCOC5)cc4)cc23)CC1` [Compound 354], the values for the pIC50 (in assay [1]; at human ALK2 R206H) were at least 8.00 and at least 7.00, respectively.
`Cn1cc(-c2[nH]c3nccc(N4CCN(C(=O)OCC(F)F)CC4)c3c2Cl)cn1` [Compound 308]: the negative-log IC50 (pIC50) was at least 8.00 in assay [1] and at least 7.00 at human ALK2 R206H.
On to `N#Cc1c(-c2nc3c(s2)COCC3)[nH]c2nccc(N3CCN(C(=O)OC4COC4)CC3)c12` [Compound 434], for which the results for the pIC50 (in assay [1]; on human ALK2 R206H) were at least 8.00 and at least 7.00, respectively.
Take `CCn1cnc(-c2[nH]c3nccc(N4CCN(C(=O)OC5COC5)CC4)c3c2C#N)c1` [Compound 290]: the pIC50 in assay [1] was at least 8.00; on human ALK2 R206H, at least 7.00.
For `Cn1cnc(-c2[nH]c3nccc(N4CCN(C(=O)O[C@@H]5CCC5(F)F)CC4)c3c2C#N)c1` [Compound 368], in that order: at least 8.00 and at least 7.00.
For the molecule `Cn1cc(-c2cc3c(N4CCN(C(=O)O[C@@H]5CC(F)(F)C5(F)F)CC4)ccnc3[nH]2)cn1` [Compound 398], the results for the pIC50 (in assay [1]; on human ALK2 R206H) were at least 8.00 and at least 7.00, respectively.
As for `Cn1cc(-c2[nH]c3nccc(N4CCN(C(=O)OC5CCC5)CC4)c3c2C#N)cn1` [Compound 200], the pIC50 was at least 8.00 in assay [1] and at least 7.00 at human ALK2 R206H.
Turning to `CCOC(=O)N1CCN(c2ccnc3[nH]c(-c4ccc(C#N)cn4)cc23)CC1` [Compound 56], the pIC50 in assay [1] was at least 8.00; on human ALK2 R206H it was 6.30 to 7.00.
`C[S+]([O-])c1ccc(-c2cc3c(N4CCN(C(=O)C5CC5)CC4)ccnc3[nH]2)cc1` (centres unmarked) [Compound 225]: the negative logarithm of the IC50 (pIC50) is at least 8.00 in assay [1] and 6.30 to 7.00 at human ALK2 R206H.
For `CCN1CCN(c2ccc(-c3cc4c(N5CCN(C(=O)C6CC6)CC5)ccnc4[nH]3)nc2)CC1` [Compound 424], the figures for the negative logarithm of the IC50 (pIC50) (in assay [1]; at human ALK2 R206H) were at least 8.00 and at least 7.00, respectively.
On the same counts, the results for `Cc1nc(-c2cc3c(N4CCN(C(=O)O[C@H]5C[C@H](F)C5)CC4)ccnc3[nH]2)cn1C` [Compound 244] are at least 8.00 and at least 7.00.
In the case of `Cc1nc(-c2cc3c(N4CCN(C(=O)O[C@H]5C[C@H](F)C5)CC4)ccnc3[nH]2)sc1C` [Compound 323], the negative-log IC50 (pIC50) is at least 8.00 in assay [1] and at least 7.00 at human ALK2 R206H.
For the molecule `O=C(OC1COC1)N1CCN(c2ccnc3[nH]c(-c4cnn(C(F)F)c4)c(Cl)c23)CC1` [Compound 407], the negative-log IC50 (pIC50) in assay [1] was at least 8.00; on human ALK2 R206H, at least 7.00.
With `Cc1nc(-c2cc3c(N4CCN(C(=O)[C@H]5C[C@H](C#N)C5)CC4)ccnc3[nH]2)cs1` [Compound 205, (1r,3r)-3-(4-(2-(2-methylthiazol-4-yl)-1H-pyrrolo[2,3-b]pyridin-4-yl)piperazine-1-carbonyl)cyclobutanecarbonitrile], the negative logarithm of the IC50 (pIC50) in assay [1] was at least 8.00; at human ALK2 R206H it was at least 7.00.
Take `Cn1cnc(-c2cc3c(N4CCN(C(=O)O[C@H]5C[C@@H](F)C5)CC4)ccnc3[nH]2)c1` [Compound 160]: the pIC50 in assay [1] was at least 8.00; on human ALK2 R206H, at least 7.00.
With `Cn1cc(-c2cc3c(N4CCN(C(=O)OC5CC(F)(F)C5)CC4)ccnc3[nH]2)cn1` [Compound 266], the negative logarithm of the IC50 (pIC50) in assay [1] was at least 8.00; at human ALK2 R206H it was at least 7.00.
For the molecule `Cn1cnc(-c2cc3c(N4CCN(C(=O)OC5CC(F)(F)C5)CC4)ccnc3[nH]2)c1` [Compound 269], the negative logarithm of the IC50 (pIC50) in assay [1] is at least 8.00; at human ALK2 R206H, at least 7.00.
`O=C(OC1COC1)N1CCN(c2ccnc3[nH]c(-c4ccccn4)cc23)CC1` [Compound 66]: the negative logarithm of the IC50 (pIC50) in assay [1] is at least 8.00; at human ALK2 R206H, 6.30 to 7.00.
Regarding `Cn1cc(-c2cc3c(N4CCN(C(=O)[C@H]5CC[C@H](C#N)CC5)CC4)ccnc3[nH]2)cn1` [Compound 278], the negative-log IC50 (pIC50) in assay [1] was at least 8.00; at human ALK2 R206H, at least 7.00.
Turning to `Cn1cc(-c2cc3c(N4CCN(C(=O)OCC(F)F)CC4)ccnc3[nH]2)cn1` [Compound 126], the pIC50 is at least 8.00 in assay [1] and at least 7.00 at human ALK2 R206H.
On the same counts, the results for `C[C@@H](F)COC(=O)N1CCN(c2ccnc3[nH]c(-c4cnn(C)c4)cc23)CC1` [Compound 118] are at least 8.00 and 6.30 to 7.00.
In the case of `CC(C)CC(=O)N1CCN(c2ccnc3[nH]c(-c4cnn(C)c4)cc23)CC1` [Compound 32], the negative-log IC50 (pIC50) was 7.30 to 8.00 in assay [1] and 6.30 to 7.00 at human ALK2 R206H.
Consider `Cc1nc(-c2cc3c(N4CCN(C(=O)OC5CCC5)CC4)ccnc3[nH]2)sc1C` [Compound 242], for which the figures for the pIC50 (in assay [1]; at human ALK2 R206H) were at least 8.00 and at least 7.00, respectively.
For `Cc1nc(-c2[nH]c3nccc(N4CCN(C(=O)OC5COC5)CC4)c3c2Cl)cs1` [Compound 344], in that order: at least 8.00 and at least 7.00.
On to `CCOC(=O)N1CCN(c2ccnc3[nH]c(-c4ccc(C)cn4)cc23)CC1` [Compound 24], for which the results for the pIC50 (in assay [1]; at human ALK2 R206H) were at least 8.00 and 6.30 to 7.00, respectively.
As to `CC(C)N1CCN(c2ccc(-c3cc4c(N5CCN(C(=O)C6CC6)CC5)ccnc4[nH]3)cc2)CC1` [Compound 438], the pIC50 in assay [1] is at least 8.00; on human ALK2 R206H it was at least 7.00.
With `O=C(OC1COC1)N1CCN(c2ccnc3[nH]c(-c4cn5c(n4)COCC5)cc23)CC1` [Compound 302], the pIC50 in assay [1] is at least 8.00; at human ALK2 R206H, at least 7.00.
On the same counts, the results for `Cc1ncc(-c2cc3c(N4CCN(C(=O)OC5COC5)CC4)ccnc3[nH]2)o1` [Compound 103] are at least 8.00 and 6.30 to 7.00.
`Cn1cc(-c2[nH]c3nccc(N4CCN(C(=O)OC5COC5)CC4)c3c2C#N)cn1` [Compound 207]: the figures for the negative-log IC50 (pIC50) (in assay [1]; at human ALK2 R206H) were at least 8.00 and at least 7.00, respectively.
For `Cc1nc(-c2cc3c(N4CCN(C(=O)OC5CC5)CC4)ccnc3[nH]2)cn1C` [Compound 75], in that order: at least 8.00 and at least 7.00.
On the same counts, the results for `CCOC(=O)N1CCN(c2ccnc3[nH]c(-c4cnn(C)c4C(F)F)cc23)CC1` [Compound 191] are at least 8.00 and 6.30 to 7.00.
In the case of `CCOC(=O)N1CCN(c2ccnc3[nH]c(-c4cn(C)nc4C#N)cc23)CC1` [Compound 69], the results for the pIC50 (in assay [1]; at human ALK2 R206H) were at least 8.00 and at least 7.00, respectively.
On the same counts, the results for `Cn1cc(-c2[nH]c3nccc(N4CCN(C(=O)C5CC5)CC4)c3c2C#N)cn1` [Compound 55] are at least 8.00 and 6.30 to 7.00.
As for `CCOC(=O)N1CCN(c2ccnc3[nH]c(-c4cccnc4)cc23)CC1` [Compound 8], the results for the pIC50 (in assay [1]; on human ALK2 R206H) were at least 8.00 and 6.30 to 7.00, respectively.
